How the values were obtained:
[1] = test system: zymostenol accumulation in EpiSC-derived OPCs (EBP); assay: GC/MS-based sterol profiling (zymostenol accumulation); format: cell-based; details: Mus musculus, 24 hours, 8 doses from 0.15 nM to 333 nM, read-out: Zymostenol GCMS EC50
Description: To assess effects of treatments on OPCs, all treatments were assayed in two or more independent platings of epiblast stem cell-derived OPCs (EpiSC). EpiSC-derived OPCs were obtained using in vitro differentiation protocols and culture conditions described previously (Najm et al, 2011, Nature Methods). OPCs were expanded and frozen down in aliquots. OPCs were thawed into growth conditions for at least one passage before use in further assays.
Sterols were monitored using a modified Folch wash protocol (Hubler et al, 2018, Nature). EpiSC-derived OPCs were plated at 100,000 cells per well in PO- and laminin-coated 96-well plates in N2B27 media without growth factors. After 24 hours, cells were rinsed with saline and plates were frozen. Cholesterol-d7 standard was then added to each well before drying under nitrogen stream and derivatization with 55 μl of bis(trimethylsilyl) trifluoroacetamide. After derivatization, 2 μl were analyzed by gas chromatography/mass spectrometry using an Agilent 5973 Network Mass Selective Detector equipped with a 6890 gas chromatograph system and a HP-5MS capillary column (30 m×0.25 mm×[…]). Samples were analyzed in full scan mode using electron impact ionization; ion fragment peaks were integrated to calculate sterol abundance, and quantitation was relative to cholesterol-d7. The following ion fragments were used to quantitate each metabolite: cholesterol-d7 (465), FF-Mas (482), cholesterol (368), zymostenol (458), zymosterol (456), Desmosterol (456, 343), 7-dehydrocholesterol (456, 325), lanosterol (393), lathosterol (458), 14-dehydrozymostenol (456, 351). […] All standards were obtained from Avanti Polar Lipids unless otherwise indicated. Calibration curves were generated by injecting varying concentrations of sterol standards and maintaining a fixed amount of cholesterol-D7. For normalized zymostenol accumulation results, the total amount of zymostenol measured after drug treatment was divided by the total amount of zymostenol accumulated after 24 hr treatment with 100 nM positive control reference.

[2] = target: T1, human emopamil binding protein and human 7-dehydrocholesterol reductase (hEBP-DHCR7) (Homo sapiens, UniProt Q15125); assay: hEBP-DHCR7 radioligand filtration binding assay; details: membranes of HEK293 co-expressing hEBP and DHCR7; [3H] 2-thia-6-azaspiro[3.4]octane radioligand; 8 doses 0.06 to 5000 nM
T1 construct: expressed in transfected cells; host or cells: HEK 293 cells, transient transfection with 2 DNA constructs
Description: Membrane Preparation: human emopamil binding protein and human 7-dehydrocholesterol reductase co-expressing cells were generated by transient transfecting host human embryonic kidney (HEK) 293 cells with 2 DNA constructs containing each protein's coding sequence. Cells were suspension cultured at 37° C. with 5% CO2 in […] 293 Expression Medium (Thermofisher). Whole cell membrane was prepared by harvesting the cell pellet, adding cold membrane buffer (50 mM Tris, pH7.5, lx Roche COMPLETE EDTA-free protease inhibitor cocktail) 10 times volume of the cell pellets weight, lysing cell pellet on ice by using Dounce homogenizer, spinning at 200 g 4° C. for 15 min, collecting supernatant and spinning again at 25000 g 4° C. for 50 min, transferring pellet to Dounce homogenizer, re-suspending pellet by homogenizing in membrane buffer on ice to reach ˜25 mg/mL, then keeping whole cell membrane aliquots at −80° C.
Compounds were prepared in a 96-well U bottom plate using an Echo550 machine and 10 mM compound DMSO stock solution, followed by an 8-dose 5-fold serial dilutions protocol with final testing compound concentration ranging from 0.06 to 5000 nM, with DMSO back fill to 100 nL/well and n=2. […] The UniFilter-96 GF/B plates were pre-treated by adding 50 µl/well of 0.3% (v/v) PEI to UniFilter-96 GF/B plates. The plates were sealed and incubated at 4° C. for 3 hrs. Then, the plates were washed with ice-cold assay buffer 3 times. The radioligand binding assay was prepared by adding assay buffer diluted hEBP-DHCR7 membrane at 66.7 μg/ml×150 l/well into the 96-well compound plate to reach 10 μg membrane per well. Then, the assay buffer diluted [3H]—((S)-6-(2-Methyl-3-(6-(trifluoromethyl)pyridin-3-yl)propyl)-2-thia-6-azaspiro[3.4]octane 2,2-dioxide or (R)-6-(2-Methyl-3-(6-(trifluoromethyl)pyridin-3-yl)propyl)-2-thia-6-azaspiro[3.4]octane 2,2-dioxide) was added at 25 nM×50 l/well. Following this, the plate was centrifuged at 1000 rpm for 30 secs. The plate was then sealed and agitated at 600 rpm at 22° C. for 5 min, and then incubated at 22° C. for 3 hrs. The incubation was stopped by transferring the binding solution to the pre-treated UniFilter-96 GF/B plate, vacuum filtrated, and then washed four times with ice-cold assay buffer. Following this, the plates were dried at 37° C. for 45 min. The plates were then sealed at the bottom. 40 µl/well of scintillation cocktail was added to the plates. A MicroBeta2 microplate counter was then used to read the plate and analyze the data. For reference and test compounds, the results are expressed as % Inhibition, using the normalization equation: N=100−100×(U−C2)/(C1−C2), where U is the unknown value, C1 is the average of high controls, and C2 is the average value of low controls. The IC50 was determined by fitting percentage of inhibition as a function of compound concentrations with Hill equation using XLfit. Results are expressed as hEBP-DHCR7 Ki (uM) in Table 4. Ki was calculated as described above; * indicates isolated isomer or isomers, but that the stereochemistry has not been assigned.

T1 sequence (Q15125 whole entry): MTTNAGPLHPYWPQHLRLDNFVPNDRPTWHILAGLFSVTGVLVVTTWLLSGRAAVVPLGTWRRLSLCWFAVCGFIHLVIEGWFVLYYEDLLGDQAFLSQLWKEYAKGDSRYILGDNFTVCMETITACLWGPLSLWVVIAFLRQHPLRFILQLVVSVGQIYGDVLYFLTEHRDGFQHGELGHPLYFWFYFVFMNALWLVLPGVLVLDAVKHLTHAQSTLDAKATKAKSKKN

| SMILES | EC50 [1] | Ki [2] |
| --- | --- | --- |
| CC(C)n1nc(C(F)(F)F)cc1[C@H]1[C@@H]2C[C@H](N3CCC[C@]4(CCS(=O)(=O)C4)C3)C[C@@H]21 (single isomer, unassigned) [Compound 95*] | 58.3 nM |  |
| CC(C)n1nc(-c2cccc(C(F)(F)F)n2)cc1[C@H]1[C@@H]2C[C@H](N3CCC[C@]4(CCS(=O)(=O)C4)C3)C[C@@H]21 (single isomer, unassigned) [Compound 83*] | 41 nM |  |
| CCn1nc(-c2cncc(F)c2)cc1[C@H]1[C@@H]2C[C@@H](N3CCC4(CC3)CS(=O)(=O)C4)C[C@@H]21 (single isomer, unassigned) [Compound 66*] | 35 nM | 26.4 nM |
| O=S1(=O)CC2(CCN([C@H]3C[C@@H]4[C@H](C3)[C@H]4c3cc(C(F)(F)F)n(CC(F)F)n3)CC2)C1 (single isomer, unassigned) [Compound 97] | 22.1 nM | 6.85 nM |
| CC(C)n1nc(C(F)(F)F)cc1[C@H]1[C@@H]2C[C@@H](N3CCC[C@]4(CCS(=O)(=O)C4)C3)C[C@@H]21 (single isomer, unassigned) [Compound 93*] | 240 nM |  |
| O=S1(=O)CC2(CCN([C@H]3C[C@@H]4[C@H](C3)[C@H]4c3cc(C(F)(F)F)nn3CC(F)F)C2)C1 (single isomer, unassigned) [Compound 91*] | 24 nM | 16.3 nM |
| CC(C)(C)n1nc(C(F)(F)F)nc1[C@H]1[C@@H]2C[C@@H](N3CCC4(C3)CS(=O)(=O)C4)C[C@@H]21 (single isomer, unassigned) [Compound 77*] | 330 nM | 93 nM |
| CCn1nc(-c2cncc(F)c2)cc1[C@H]1[C@@H]2C[C@H](N3CCC4(CC3)CS(=O)(=O)C4)C[C@@H]21 (single isomer, unassigned) [Compound 67*] | 37 nM | 171 nM |
| O=S1(=O)CC[C@@]2(CCCN([C@@H]3C[C@@H]4[C@H](C3)[C@H]4c3cc(C(F)(F)F)nn3CC(F)F)C2)C1 (single isomer, unassigned) [Compound 86*] | 13 nM | 21.2 nM |
| CC(C)n1nc(-c2cccc(C(F)(F)F)c2)nc1[C@H]1[C@@H]2C[C@@H](N3CCC4(CC3)CS(=O)(=O)C4)C[C@@H]21 [Compound 79, 7-((1R,3s,5S,6r)-6-(1-isopropyl-3-(3-(trifluoromethyl)phenyl)-1H-1,2,4-triazol-5-yl)bicyclo[3.1.0]hexan-3-yl)-2-thia-7-azaspiro[3.5]nonane 2,2-dioxide] | 3 nM |  |
| CCn1nc(-c2cccnc2)cc1[C@H]1[C@@H]2C[C@@H](N3CCC4(C3)CS(=O)(=O)C4)C[C@@H]21 (single isomer, unassigned) [Compound 64*] | 44 nM | 203 nM |
| CC(C)(C)n1nc(C(F)(F)F)nc1[C@H]1[C@@H]2C[C@H](N3CCC4(C3)CS(=O)(=O)C4)C[C@@H]21 (single isomer, unassigned) [Compound 78*] | 53 nM | 33.6 nM |
| CC(C)n1nc(C(F)(F)F)cc1[C@H]1[C@@H]2C[C@H](N3CCC[C@@]4(CCS(=O)(=O)C4)C3)C[C@@H]21 (single isomer, unassigned) [Compound 94*] | 3.47 nM |  |
| CC(C)n1nc(-c2cccc(C(F)(F)F)n2)cc1[C@H]1[C@@H]2C[C@@H](N3CCC[C@]4(CCS(=O)(=O)C4)C3)C[C@@H]21 (single isomer, unassigned) [Compound 81*] | 27 nM |  |
| CC(C)n1nc([C@H]2CC[C@@](O)(C(F)(F)F)CC2)cc1[C@H]1[C@@H]2C[C@@H](N3CCC4(C3)CS(=O)(=O)C4)C[C@@H]21 (single isomer, unassigned) [Compound 105*] | 110 nM | 554 nM |
| O=S1(=O)CC2(CCN([C@@H]3C[C@@H]4[C@H](C3)[C@H]4c3cc(C(F)(F)F)n(CC(F)F)n3)CC2)C1 (single isomer, unassigned) [Compound 96*] | 37.9 nM | 438 nM |
| CC(C)n1nc(-c2cccc(C(F)(F)F)c2)nc1[C@H]1[C@@H]2C[C@H](N3CCC4(C3)CS(=O)(=O)C4)C[C@@H]21 [Compound 52, 6-((1R,3r,5S,6r)-6-(1-isopropyl-3-(3-(trifluoromethyl)phenyl)-1H-1,2,4-triazol-5-yl)bicyclo[3.1.0]hexan-3-yl)-2-thia-6-azaspiro[3.4]octane 2,2-dioxide] | 2.4 nM | 10.3 nM |
| CC(C)(C)n1nc(-c2cccc(C(F)(F)F)c2)nc1[C@H]1[C@@H]2C[C@H](N3CCC4(C3)CS(=O)(=O)C4)C[C@@H]21 (single isomer, unassigned) [Compound 76] | 2.2 nM | 11.8 nM |
| CCn1nc(-c2ccccn2)cc1[C@H]1[C@@H]2C[C@@H](N3CCC4(C3)CS(=O)(=O)C4)C[C@@H]21 [Compound 72, 6-((1R,3s,5S,6r)-6-(1-Ethyl-3-(pyridin-2-yl)-1H-pyrazol-5-yl)bicyclo[3.1.0]hexan-3-yl)-2-thia-6-azaspiro[3.4]octane 2,2-dioxide] | 47 nM | 303 nM |
| O=S1(=O)CC[C@]2(CCCN([C@@H]3C[C@@H]4[C@H](C3)[C@H]4c3cc(C(F)(F)F)nn3CC(F)F)C2)C1 (single isomer, unassigned) [Compound 87*] | > 330 nM | 94.6 nM |
| O=S1(=O)CC[C@@]2(CCCN([C@H]3C[C@@H]4[C@H](C3)[C@H]4c3cc(C(F)(F)F)nn3CC(F)F)C2)C1 (single isomer, unassigned) [Compound 88*] | 7.7 nM | 18.9 nM |
| CC(C)n1nc(-c2cccc(C(F)(F)F)n2)cc1[C@H]1[C@@H]2C[C@H](N3CCC[C@@]4(CCS(=O)(=O)C4)C3)C[C@@H]21 (single isomer, unassigned) [Compound 82*] | 3.6 nM |  |
| O=S1(=O)CC[C@]2(CCCN([C@H]3C[C@@H]4[C@H](C3)[C@H]4c3cc(C(F)(F)F)nn3CC(F)F)C2)C1 (single isomer, unassigned) [Compound 89*] | 270 nM | 128 nM |
| CC(C)n1nc([C@H]2CC[C@@H](C(F)(F)F)CC2)cc1[C@H]1[C@@H]2C[C@@H](N3CCC4(C3)CS(=O)(=O)C4)C[C@@H]21 (single isomer, unassigned) [Compound 106] | 14.6 nM | 13.1 nM |
| CC(C)n1nc(-c2cccc(C(F)(F)F)n2)cc1[C@H]1[C@@H]2C[C@@H](N3CCC[C@@]4(CCS(=O)(=O)C4)C3)C[C@@H]21 (single isomer, unassigned) [Compound 80*] | 4.3 nM |  |

Source: patent publication US20240391930A1, “SPIROCYCLIC BICYCLIC MODULATORS OF CHOLESTEROL BIOSYNTHESIS AND THEIR USE FOR PROMOTING REMYELINATION” (GENENTECH, INC., priority 2021, published 2024)
